Source: PMC11258486, “Phase 1 dose escalation study of the MDM2 inhibitor milademetan as monotherapy and in combination with azacitidine in patients with myeloid malignancies” (Cancer Medicine, 2024)
Several values for one entry are separate records, joined by “and”; a condition that tells them apart may be missing. Identical values can stand only once. Counter-ions that a name gives are not always drawn.

Key:
[1] = test system: patients with relapsed or refractory acute myeloid leukemia or high‐risk myelodysplastic syndromes
Method: This was a phase 1, open‐label, non‐randomized dose escalation study of milademetan as monotherapy (Part 1) or in combination with AZA (Part 1A; ClinicalTrials.gov identifier: NCT02319369).
Dose escalation of milademetan to determine the maximum tolerated dose (MTD) was guided by a Bayesian logistic regression model (BLRM) following escalation with overdose control principle with a starting dose of 60 mg based on safety and tolerability data from the first‐in‐human study of milademetan in solid tumors or lymphoma.[20]
In Part 1, 9 escalating dose cohorts (Figure S1) were investigated.
In Part 1A, milademetan was given in combination with AZA (75 mg/m^2 dose administered subcutaneously or intravenously on Days 1–7) with 2 dosing schedules of milademetan: in Cohorts 10 and 12, milademetan was administered QD for 10 days (Days 5–14; 160 and 200 mg, respectively); in Cohorts 11 and 13 milademetan was given QD for 7 days (Days 8–14; 160 and 200 mg, respectively).
Safety was the primary endpoint of the study and included treatment‐emergent adverse events (TEAE), serious adverse events (SAE), dose‐limiting toxicities (DLT), physical examination findings, and clinical laboratory values. TEAE were categorized according to the Medical Dictionary for Regulatory Activities (MeDRA) v17.0 and graded according to the National Cancer Institute‐Common Terminology for Adverse Events (NCI‐CTCAE) v5.0. Participants were followed up until 30 days after completion of study treatment. A DLT was defined as any TEAE of grade ≥3 not attributable to disease or disease‐related processes occurring during Cycle 1 in each dose‐level cohort.
The final MTD for each dosing regimen (QD 21/28 dosing and others) was decided based on considerations of the respective MTD estimated by the BLRM and on an overall assessment of safety data from subsequent cycles and pharmacokinetics (PK)/pharmacodynamics (PD) information collected at all different doses tested.
Cohorts of ≥3 DLT evaluable participants were enrolled per dose level, and the dose escalation decisions were guided by BLRM, governed by escalation with overdose control principle.

[2] = test system: patients with solid tumors or lymphomas; details: cited from earlier work
[3] = not assessed as related to milademetan

Compound: CC1(C)CCC2(CC1)N[C@@H](C(=O)N[C@@H]1CC[C@@H](C(N)=O)OC1)[C@H](c1ccnc(Cl)c1F)[C@]21C(=O)Nc2cc(Cl)ccc21 [Milademetan monotherapy, milademetan tosylate hydrate]
- Abdominal pain, TEAE Grade ≥3 ([1]; human, in vivo): 1 (2) n (%)
- Cough, TEAE Grade ≥3 ([1]; human, in vivo): 0 n (%)
- Cough, TEAE all grades ([1]; human, in vivo): 3 (5) n (%)
- Decreased appetite, TEAE Grade ≥3 ([1]; human, in vivo): 1 (2) n (%)
- Decreased appetite, TEAE all grades ([1]; human, in vivo): 13 (23) n (%)
- Dehydration, TEAE Grade ≥3 ([1]; human, in vivo): 1 (2) n (%)
- Dehydration, TEAE all grades ([1]; human, in vivo): 6 (11) n (%)
- Depression, TEAE Grade ≥3 ([1]; human, in vivo): 0 n (%)
- Depression, TEAE all grades ([1]; human, in vivo): 2 (4) n (%)
- Device‐related infection, TEAE Grade ≥3 ([1]; human, in vivo): 0 n (%)
- Device‐related infection, TEAE all grades ([1]; human, in vivo): 0 n (%)
- Diarrhea, TEAE Grade ≥3 ([1]; human, in vivo): 3 (5) n (%)
- Diarrhea, TEAE all grades ([1]; human, in vivo): 32 (56) n (%)
- Diarrhea, most common (>20%) TEAE ([1]; human, in vivo): 25 [44%] n [%]
- Dizziness, TEAE Grade ≥3 ([1]; human, in vivo): 1 (2) n (%)
- Dizziness, TEAE all grades ([1]; human, in vivo): 6 (11) n (%)
- Dyspnea, TEAE Grade ≥3 ([1]; human, in vivo): 0 n (%)
- Dyspnea, TEAE all grades ([1]; human, in vivo): 8 (14) n (%)
- Epistaxis, TEAE Grade ≥3 ([1]; human, in vivo): 0 n (%)
- Epistaxis, TEAE all grades ([1]; human, in vivo): 1 (2) n (%)
- Escherichia infection, TEAE Grade ≥3 ([1]; human, in vivo): 0 n (%)
- Escherichia infection, TEAE all grades ([1]; human, in vivo): 0 n (%)
- Fatigue, TEAE Grade ≥3 ([1]; human, in vivo): 4 (7) n (%)
- Hyperuricemia, TEAE Grade ≥3 ([1]; human, in vivo): 2 (4) n (%)
- Hyperuricemia, TEAE all grades ([1]; human, in vivo): 6 (11) n (%)
- Hypokalemia, TEAE Grade ≥3 ([1]; human, in vivo): 3 (5) n (%)
- Hypokalemia, TEAE all grades ([1]; human, in vivo): 12 (21) n (%)
- Hypomagnesemia, TEAE Grade ≥3 ([1]; human, in vivo): 0 n (%)
- Hypomagnesemia, TEAE all grades ([1]; human, in vivo): 9 (16) n (%)
- Hyponatremia, TEAE Grade ≥3 ([1]; human, in vivo): 2 (4) n (%)
- Hyponatremia, TEAE all grades ([1]; human, in vivo): 2 (4) n (%)
- Hypophosphatemia, TEAE Grade ≥3 ([1]; human, in vivo): 0 n (%)
- Hypophosphatemia, TEAE all grades ([1]; human, in vivo): 0 n (%)
- Hypotension, TEAE Grade ≥3 ([1]; human, in vivo): 2 (4) n (%)
- Hypotension, TEAE all grades ([1]; human, in vivo): 9 (16) n (%)
- Increased ALT, TEAE Grade ≥3 ([1]; human, in vivo): 0 n (%)
- Increased ALT, TEAE all grades ([1]; human, in vivo): 1 (2) n (%)
- Insomnia, TEAE Grade ≥3 ([1]; human, in vivo): 0 n (%)
- Insomnia, TEAE all grades ([1]; human, in vivo): 4 (7) n (%)
- Lung infection, TEAE Grade ≥3 ([1]; human, in vivo): 11 (19) n (%)
- Lung infection, TEAE all grades ([1]; human, in vivo): 11 (19) n (%)
- Maculopapular rash, TEAE Grade ≥3 ([1]; human, in vivo): 0 n (%)
- Maculopapular rash, TEAE all grades ([1]; human, in vivo): 2 (4) n (%)
- Muscular weakness, TEAE all grades ([1]; human, in vivo): 2 (4) n (%)
- Myalgia, TEAE Grade ≥3 ([1]; human, in vivo): 0 n (%)
- Myalgia, TEAE all grades ([1]; human, in vivo): 1 (2) n (%)
- Nausea, TEAE Grade ≥3 ([1]; human, in vivo): 4 (7) n (%)
- Nausea, TEAE all grades ([1]; human, in vivo): 39 (68) n (%)
- Nausea, most common (>20%) TEAE ([1]; human, in vivo): 32 [56%] n [%]
- Neutropenia, TEAE Grade ≥3 ([1]; human, in vivo): 10 (18) n (%)
- Neutropenia, TEAE all grades ([1]; human, in vivo): 10 (18) n (%)
- Oropharyngeal pain, TEAE Grade ≥3 ([1]; human, in vivo): 0 n (%)
- Oropharyngeal pain, TEAE all grades ([1]; human, in vivo): 3 (5) n (%)
- Pancytopenia, TEAE Grade ≥3 ([1]; human, in vivo): 0 n (%)
- Pancytopenia, TEAE all grades ([1]; human, in vivo): 0 n (%)
- Participants with DLT of cellulitis ([1]; human, in vivo): 1 participant
- Participants with DLT of diarrhea ([1]; human, in vivo): 1 participant
- Participants with DLT of fatigue ([1]; human, in vivo): 1 participant
- Participants with DLT of hypokalemia ([1]; human, in vivo): 1 participant
- Participants with DLT of nausea ([1]; human, in vivo): 3 participants
- Participants with DLT of renal failure ([1]; human, in vivo): 1 participant
- Participants with DLT of vomiting ([1]; human, in vivo): 1 participant
- Peripheral edema, TEAE Grade ≥3 ([1]; human, in vivo): 0 n (%)
- Peripheral edema, TEAE all grades ([1]; human, in vivo): 14 (25) n (%)
- Pneumonia, TEAE Grade ≥3 ([1]; human, in vivo): 6 (11) n (%)
- Pneumonia, TEAE all grades ([1]; human, in vivo): 9 (16) n (%)
- Pyrexia, TEAE Grade ≥3 ([1]; human, in vivo): 1 (2) n (%)
- Pyrexia, TEAE all grades ([1]; human, in vivo): 5 (9) n (%)
- Rhinorrhea, TEAE Grade ≥3 ([1]; human, in vivo): 0 n (%)
- Rhinorrhea, TEAE all grades ([1]; human, in vivo): 1 (2) n (%)
- SAE ([1]; human, in vivo): 39 (68.4) n (%)
- SAE: bacteremia ([1]; human, in vivo): 3 [5%] n [%]
- SAE: cellulitis ([1]; human, in vivo): 3 [5%] n [%]
- SAE: febrile neutropenia ([1]; human, in vivo): 5 [9%] n [%]
- SAE: lung infection ([1]; human, in vivo): 9 [16%] n [%]
- SAE: pneumonia ([1]; human, in vivo): 7 [12%] n [%]
- SAE: pyrexia ([1]; human, in vivo): 3 [5%] n [%]
- SAE: sepsis ([1]; human, in vivo): 7 [12%] n [%]
- Sepsis, TEAE Grade ≥3 ([1]; human, in vivo): 8 (14) n (%)
- Sepsis, TEAE all grades ([1]; human, in vivo): 8 (14) n (%)
- Tolerability relative to MTD ([1]; human, in vivo): exceeded MTD
- Vomiting, most common (>20%) TEAE ([1]; human, in vivo): 15 [26%] n [%]
- Participants who experienced DLT ([1]; in vivo): Eight
- Dose interruptions due to TEAE ([1]; monotherapy arm): 12 (21%) n (%)
- Dose reductions due to TEAE ([1]; monotherapy arm): 3 (5%) n (%)
- Maximum tolerated dose (MTD) of milademetan ([1]; monotherapy, QD 21/28 and QD 14/28 dosing schedules): 160 mg
- Event associated with a fatal outcome: intracranial hemorrhage [1, 3]: 1 patient
- Event associated with a fatal outcome: lung infection [1, 3]: 2 patients
- Event associated with a fatal outcome: multi-organ failure [1, 3]: 1 patient
- Event associated with a fatal outcome: pneumonia [1, 3]: 1 patient
- Event associated with a fatal outcome: respiratory failure [1, 3]: 1 patient
- Event associated with a fatal outcome: sepsis [1, 3]: 4 patients
- Milademetan-related TEAE ([1]; per investigator assessment, safety analysis set): 47 (82.5) n (%)
- Abdominal pain, TEAE all grades ([1]; safety analysis set): 7 (12) n (%)
- Anemia, TEAE Grade ≥3 ([1]; safety analysis set): 9 (16) n (%)
- Anemia, TEAE all grades ([1]; safety analysis set): 13 (23) n (%)
- Any TEAE, Grade ≥3 ([1]; safety analysis set): 48 (84%) n (%) and 48 (84) n (%) and 48 (84.2) n (%)
- Any TEAE, all grades ([1]; safety analysis set): 57 n (%) and 57 (100) n (%)
- Arthralgia, TEAE Grade ≥3 ([1]; safety analysis set): 0 n (%)
- Arthralgia, TEAE all grades ([1]; safety analysis set): 3 (5) n (%)
- Asthenia, TEAE Grade ≥3 ([1]; safety analysis set): 1 (2) n (%)
- Asthenia, TEAE all grades ([1]; safety analysis set): 7 (12) n (%)
- Constipation, TEAE Grade ≥3 ([1]; safety analysis set): 0 n (%)
- Constipation, TEAE all grades ([1]; safety analysis set): 3 (5) n (%)
- Contusion, TEAE Grade ≥3 ([1]; safety analysis set): 0 n (%)
- Contusion, TEAE all grades ([1]; safety analysis set): 2 (4) n (%)
- Fatigue, TEAE all grades ([1]; safety analysis set): 20 (35) n (%)
- Febrile neutropenia, TEAE Grade ≥3 ([1]; safety analysis set): 5 (9) n (%)
- Febrile neutropenia, TEAE all grades ([1]; safety analysis set): 6 (11) n (%)
- Fluid overload, TEAE Grade ≥3 ([1]; safety analysis set): 0 n (%)
- Fluid overload, TEAE all grades ([1]; safety analysis set): 2 (4) n (%)
- Fungal pneumonia, TEAE Grade ≥3 ([1]; safety analysis set): 2 (4) n (%)
- Fungal pneumonia, TEAE all grades ([1]; safety analysis set): 2 (4) n (%)
- Headache, TEAE Grade ≥3 ([1]; safety analysis set): 0 n (%)
- Headache, TEAE all grades ([1]; safety analysis set): 2 (4) n (%)
- Hemorrhoids, TEAE Grade ≥3 ([1]; safety analysis set): 1 (2) n (%)
- Hemorrhoids, TEAE all grades ([1]; safety analysis set): 3 (5) n (%)
- Malaise, TEAE Grade ≥3 ([1]; safety analysis set): 0 (0) n (%)
- Malaise, TEAE all grades ([1]; safety analysis set): 6 (11) n (%)
- Milademetan-related Grade ≥3 TEAE ([1]; safety analysis set): 19 (33%) n (%) and 19 (33.3) n (%)
- Milademetan-related SAE ([1]; safety analysis set): 7 (12%) n (%) and 7 (12.3) n (%)
- Milademetan-related TEAE associated with milademetan discontinuation ([1]; safety analysis set): 5 (8.8) n (%)
- Muscular weakness, TEAE Grade ≥3 ([1]; safety analysis set): 0 n (%)
- TEAE associated with death ([1]; safety analysis set): 9 (16%) n (%) and 9 (15.8)^a n (%)
- TEAE associated with milademetan discontinuation ([1]; safety analysis set): 13 (23%) n (%) and 13 (22.8) n (%)
- Thrombocytopenia, TEAE Grade ≥3 ([1]; safety analysis set): 15 (26) n (%)
- Thrombocytopenia, TEAE all grades ([1]; safety analysis set): 15 (26) n (%)
- Vomiting, TEAE Grade ≥3 ([1]; safety analysis set): 2 (4) n (%)
- Vomiting, TEAE all grades ([1]; safety analysis set): 24 (42) n (%)
- DLT observed ([2]; 120 mg QD 21/28, phase 1 studies in the United States and Japan): thrombocytopenia and nausea
- MTD ([2]; US study in solid tumors, QD 3/14 × 2 schedule): 260 mg
